In the OligoGym collection:
Oligonucleotides are written 5' to 3', each unit as a sugar letter and its base; * is a phosphorothioate linkage, no mark a phosphodiester; rarer units and linkages stand in square brackets, end groups in braces. Plain capitals give the bases only. d = 2'-deoxy (DNA); r = 2'-OH (RNA)

Biological target: P2RX3
Assay: reporter assay of Huesken 2005
Settings: siRNA
Further: test concentration or dose not given here.

| Substance | normalised inhibition (eCFP-eYFP dual reporter) [%] |
| --- | --- |
| sense rArUrCrGrGrGrArUrCrArUrCrArArCrCrGrArGdTdT / antisense rCrUrCrGrGrUrUrGrArUrGrArUrCrCrCrGrArUdGdG | 39.3 |
| sense rArUrGrUrGrUrCrUrGrArUrUrArCrGrUrGrArCdTdT / antisense rGrUrCrArCrGrUrArArUrCrArGrArCrArCrArUdCdC | 33.9 |
| sense rArUrUrGrUrUrArCrUrGrArArArArUrCrArGrAdTdT / antisense rUrCrUrGrArUrUrUrUrCrArGrUrArArCrArArUdCdA | 74.6 |
| sense rCrArArGrGrArUrUrCrUrGrCrCrCrArGrArGrAdTdT / antisense rUrCrUrCrUrGrGrGrCrArGrArArUrCrCrUrUrGdCdA | 102 |
| sense rCrArGrGrCrUrArCrArArCrUrUrCrArGrGrUrUdTdT / antisense rArArCrCrUrGrArArGrUrUrGrUrArGrCrCrUrGdGdG | 95.5 |
| sense rCrArUrCrArArCrCrGrArGrUrArGrUrUrCrArGdTdT / antisense rCrUrGrArArCrUrArCrUrCrGrGrUrUrGrArUrGdAdT | 74.7 |
| sense rCrArUrCrArUrCrCrCrCrArCrCrArUrCrArUrCdTdT / antisense rGrArUrGrArUrGrGrUrGrGrGrGrArUrGrArUrGdTdT | 38.5 |
| sense rCrCrArArGrArUrGrArUrUrGrUrUrArCrUrGrAdTdT / antisense rUrCrArGrUrArArCrArArUrCrArUrCrUrUrGrGdTdG | 98.9 |
| sense rCrCrArCrArGrCrGrGrArGrArArGrCrArGrUrCdTdT / antisense rGrArCrUrGrCrUrUrCrUrCrCrGrCrUrGrUrGrGdTdC | 62.7 |
| sense rCrCrArCrCrUrCrArGrGrGrCrArCrCrUrCrGrGdTdT / antisense rCrCrGrArGrGrUrGrCrCrCrUrGrArGrGrUrGrGdCdG | 70.2 |
| sense rCrCrGrGrCrUrCrGrArCrArGrCrGrUrUrUrCrUdTdT / antisense rArGrArArArCrGrCrUrGrUrCrGrArGrCrCrGrGdGdT | 98 |
| sense rCrCrUrGrArCrArGrCrCrArGrGrGrArCrArUrGdTdT / antisense rCrArUrGrUrCrCrCrUrGrGrCrUrGrUrCrArGrGdTdT | 33.4 |
| sense rCrGrCrArCrCrCrUrCrCrUrGrArArGrGrCrUrUdTdT / antisense rArArGrCrCrUrUrCrArGrGrArGrGrGrUrGrCrGdGdT | 67.9 |
| sense rCrGrCrCrArCrCrUrCrArGrGrGrCrArCrCrUrCdTdT / antisense rGrArGrGrUrGrCrCrCrUrGrArGrGrUrGrGrCrGdTdC | 13 |
| sense rCrGrCrGrGrCrUrUrUrGrArCrCrArArCrCrCrAdTdT / antisense rUrGrGrGrUrUrGrGrUrCrArArArGrCrCrGrCrGdAdT | 84.4 |
| sense rCrGrGrCrUrCrGrArCrArGrCrGrUrUrUrCrUrGdTdT / antisense rCrArGrArArArCrGrCrUrGrUrCrGrArGrCrCrGdGdG | 86 |
| sense rCrGrUrGrArArCrUrArCrArGrCrUrCrUrGrUrGdTdT / antisense rCrArCrArGrArGrCrUrGrUrArGrUrUrCrArCrGdCdA | 42 |
| sense rCrUrArCrGrCrCrArArCrArGrArGrUrCrArUrGdTdT / antisense rCrArUrGrArCrUrCrUrGrUrUrGrGrCrGrUrArGdAdG | 53.4 |
| sense rCrUrCrGrArCrArGrCrGrUrUrUrCrUrGrArGrAdTdT / antisense rUrCrUrCrArGrArArArCrGrCrUrGrUrCrGrArGdCdC | 64.2 |
| sense rCrUrCrUrGrUrGrCrUrCrCrGrGrArCrCrUrGrUdTdT / antisense rArCrArGrGrUrCrCrGrGrArGrCrArCrArGrArGdCdT | 41.9 |
| sense rCrUrGrArArArArUrCrArGrArUrGrCrArArGrGdTdT / antisense rCrCrUrUrGrCrArUrCrUrGrArUrUrUrUrCrArGdTdA | 85.5 |
| sense rCrUrGrArUrUrArCrGrUrGrArCrGrCrCrArCrCdTdT / antisense rGrGrUrGrGrCrGrUrCrArCrGrUrArArUrCrArGdAdC | 50 |
| sense rCrUrGrGrArCrCrArUrCrGrGrGrArUrCrArUrCdTdT / antisense rGrArUrGrArUrCrCrCrGrArUrGrGrUrCrCrArGdCdT | 60.7 |
| sense rCrUrUrCrCrCrArArCrCrUrGrArCrArGrCrCrAdTdT / antisense rUrGrGrCrUrGrUrCrArGrGrUrUrGrGrGrArArGdGdA | 66.3 |
| sense rCrUrUrUrArCrUrUrCrUrGrUrGrGrGrArGrUrGdTdT / antisense rCrArCrUrCrCrCrArCrArGrArArGrUrArArArGdGdC | 67.7 |
| sense rGrArArArCrGrCrCrCrArUrCrArUrGrArUrGrGdTdT / antisense rCrCrArUrCrArUrGrArUrGrGrGrCrGrUrUrUrCdCdA | 48.7 |

| Substance | normalised inhibition (eCFP-eYFP dual reporter) [%] |
| --- | --- |
| sense rGrArArGrCrUrGrArGrArArCrUrUrCrArCrUrAdTdT / antisense rUrArGrUrGrArArGrUrUrCrUrCrArGrCrUrUrCdCdA | 88.8 |
| sense rGrArCrCrCrUrUrUrCrUrGrCrCrCrCrArUrCrUdTdT / antisense rArGrArUrGrGrGrGrCrArGrArArArGrGrGrUrCdCdT | 65.8 |
| sense rGrArCrUrUrGrGrArCrArArGrGrCrCrUrGrGrGdTdT / antisense rCrCrCrArGrGrCrCrUrUrGrUrCrCrArArGrUrCdGdC | 93 |
| sense rGrArGrArArArArGrCrArGrCrGrUrGrUrCrCrCdTdT / antisense rGrGrGrArCrArCrGrCrUrGrCrUrUrUrUrCrUrCdAdG | 68.3 |
| sense rGrArGrGrArGrArArArUrArCrCrGrCrUrGrUrGdTdT / antisense rCrArCrArGrCrGrGrUrArUrUrUrCrUrCrCrUrCdAdC | 67.4 |
| sense rGrArGrUrArGrUrUrCrArGrCrUrUrCrUrGrArUdTdT / antisense rArUrCrArGrArArGrCrUrGrArArCrUrArCrUrCdGdG | 91.8 |
| sense rGrArUrUrCrUrGrCrCrCrArGrArGrArGrUrGrAdTdT / antisense rUrCrArCrUrCrUrCrUrGrGrGrCrArGrArArUrCdCdT | 96.9 |
| sense rGrCrArCrCrUrCrGrGrUrCrUrUrUrGrUrCrArUdTdT / antisense rArUrGrArCrArArArGrArCrCrGrArGrGrUrGrCdCdC | 85.9 |
| sense rGrCrGrGrArGrArArGrCrArGrUrCrCrArCrCrGdTdT / antisense rCrGrGrUrGrGrArCrUrGrCrUrUrCrUrCrCrGrCdTdG | 81.8 |
| sense rGrCrGrGrCrCrUrUrUrArCrUrUrCrUrGrUrGrGdTdT / antisense rCrCrArCrArGrArArGrUrArArArGrGrCrCrGrCdCdA | 61.4 |
| sense rGrCrGrGrGrGrCrArGrGrArUrUrUrUrGrCrCrAdTdT / antisense rUrGrGrCrArArArArUrCrCrUrGrCrCrCrCrGrCdAdA | 67.8 |
| sense rGrCrGrGrGrUrArGrGrGrGrArCrGrUrGrGrUrCdTdT / antisense rGrArCrCrArCrGrUrCrCrCrCrUrArCrCrCrGrCdAdA | 37.2 |
| sense rGrCrUrCrCrGrGrArCrUrCrUrArCrGrCrCrArAdTdT / antisense rUrUrGrGrCrGrUrArGrArGrUrCrCrGrGrArGrCdCdC | 87.3 |
| sense rGrGrArArArCrGrCrCrCrArUrCrArUrGrArUrGdTdT / antisense rCrArUrCrArUrGrArUrGrGrGrCrGrUrUrUrCrCdAdC | 74.8 |
| sense rGrGrCrCrGrArCrCrArGrUrArCrArArArGrCrCdTdT / antisense rGrGrCrUrUrUrGrUrArCrUrGrGrUrCrGrGrCrCdCdC | 68 |
| sense rGrGrCrCrGrCrUrGrCrGrUrGrArArCrUrArCrAdTdT / antisense rUrGrUrArGrUrUrCrArCrGrCrArGrCrGrGrCrCdAdG | 72.3 |
| sense rGrGrCrCrUrUrUrArCrUrUrCrUrGrUrGrGrGrAdTdT / antisense rUrCrCrCrArCrArGrArArGrUrArArArGrGrCrCdGdC | 80.2 |
| sense rGrGrGrCrArUrUrArArGrArUrCrGrGrCrUrGrGdTdT / antisense rCrCrArGrCrCrGrArUrCrUrUrArArUrGrCrCrCdAdG | 59.7 |
| sense rGrGrGrUrArGrGrGrGrArCrGrUrGrGrUrCrArAdTdT / antisense rUrUrGrArCrCrArCrGrUrCrCrCrCrUrArCrCrCdGdC | 94.9 |
| sense rGrGrUrArCrGrGrGrArCrArCrArGrCrCrArUrUdTdT / antisense rArArUrGrGrCrUrGrUrGrUrCrCrCrGrUrArCrCdTdG | 61.2 |
| sense rGrGrUrGrArArUrGrArGrArCrUrArCrGrCrUrGdTdT / antisense rCrArGrCrGrUrArGrUrCrUrCrArUrUrCrArCrCdTdC | 87.3 |
| sense rGrUrArCrCrGrCrArCrCrCrUrCrCrUrGrArArGdTdT / antisense rCrUrUrCrArGrGrArGrGrGrUrGrCrGrGrUrArCdTdC | 37.1 |
| sense rUrArArCrCrArArGrGrUrGrArArGrGrGrCrUrCdTdT / antisense rGrArGrCrCrCrUrUrCrArCrCrUrUrGrGrUrUrAdCdC | 16.2 |
| sense rUrArGrGrGrUrGrGrGrUrUrUrUrCrUrUrGrCrAdTdT / antisense rUrGrCrArArGrArArArArCrCrCrArCrCrCrUrAdCdA | 82.2 |
| sense rUrCrArCrUrArUrUrUrUrCrArUrCrArArGrArAdTdT / antisense rUrUrCrUrUrGrArUrGrArArArArUrArGrUrGrAdAdG | 79.6 |
| sense rUrCrArGrArCrArGrCrCrArGrUrGrCrGrGrGrCdTdT / antisense rGrCrCrCrGrCrArCrUrGrGrCrUrGrUrCrUrGrAdTdA | 23.8 |
